Data published in patent US6579878B1, “Pharmaceutical compositions and methods for use” (priority 2000, dated 2003).

Assays:
[1] = system: Rat brain synaptosomes; assay: Neurotransmitter release from brain synaptosomes; assay type: biochemical; settings: in the presence of 10 uM ligand; percentage of release obtained with 10 uM (S)-(-)-nicotine or 300 uM TMA
Procedure: Neurotransmitter release was measured using techniques similar to those previously published (Bencherif M, et al.: JPET 279: 1413-1421,1996).
Rat brain synaptosomes were prepared as follows: Female Sprague Dawley rats (100-200 g) were killed by decapitation after anesthesia with 70% CO2. Brains are dissected, and hippocampus, striatum, and thalamus isolated, and homogenized in 0.32 M sucrose containing 5 mM HEPES pH 7.4 using a glass/glass homogenizer. The tissue was then centrifuged for 1000×g for 10 minutes and the pellet discarded. The supernatant was centrifuged at 12000×g for 20 minutes. The resultant pellet was re-suspended in perfusion buffer (128 mM NaCl, 1.2 mM KH2PO4, 2.4 mM KCl, 3.2 mM CaCl2, 1.2 mM MgSO4, 25 mM HEPES, 1 mM Ascorbic acid, 0.01 mM pargyline HCl and 10 mM glucose pH 7.4) and centrifuged for 15 minutes at 25000×g. The final pellet was resuspended in perfusion buffer and placed in a water bath (37° C.) for 10 minutes. […] The perfusate was collected directly into scintillation vials and released radioactivity was quantified using conventional liquid scintillation techniques. Release of neurotransmitter was determined in the presence of 10 uM of various ligands and was expressed as a percentage of release obtained with a concentration of 10 uM (S)-(−)-nicotine or 300 uM TMA resulting in maximal effects.

[2] = biological target: muscle-type nicotinic acetylcholine receptors (Homo sapiens, UniProt P02708+P07510+Q07001); assay: Determination of interaction with muscle receptors; assay type: cell-based; settings: percentage of the maximal activation induced by (S)-(-)-nicotine
Sequence of muscle-type nicotinic acetylcholine receptors (P02708 21-457): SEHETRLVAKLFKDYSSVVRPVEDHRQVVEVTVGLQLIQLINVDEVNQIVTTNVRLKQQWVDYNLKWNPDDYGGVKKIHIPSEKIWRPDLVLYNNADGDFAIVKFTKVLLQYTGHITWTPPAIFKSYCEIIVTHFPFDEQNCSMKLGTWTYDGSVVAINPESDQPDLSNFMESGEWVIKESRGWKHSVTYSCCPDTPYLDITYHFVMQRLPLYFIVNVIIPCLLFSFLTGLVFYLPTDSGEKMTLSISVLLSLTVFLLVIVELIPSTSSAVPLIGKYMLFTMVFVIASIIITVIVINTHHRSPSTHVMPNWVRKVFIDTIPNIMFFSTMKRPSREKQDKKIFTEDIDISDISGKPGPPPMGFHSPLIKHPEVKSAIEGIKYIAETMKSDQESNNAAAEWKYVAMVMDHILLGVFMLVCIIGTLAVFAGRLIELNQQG
Sequence of muscle-type nicotinic acetylcholine receptors (P11230 24-501 partner): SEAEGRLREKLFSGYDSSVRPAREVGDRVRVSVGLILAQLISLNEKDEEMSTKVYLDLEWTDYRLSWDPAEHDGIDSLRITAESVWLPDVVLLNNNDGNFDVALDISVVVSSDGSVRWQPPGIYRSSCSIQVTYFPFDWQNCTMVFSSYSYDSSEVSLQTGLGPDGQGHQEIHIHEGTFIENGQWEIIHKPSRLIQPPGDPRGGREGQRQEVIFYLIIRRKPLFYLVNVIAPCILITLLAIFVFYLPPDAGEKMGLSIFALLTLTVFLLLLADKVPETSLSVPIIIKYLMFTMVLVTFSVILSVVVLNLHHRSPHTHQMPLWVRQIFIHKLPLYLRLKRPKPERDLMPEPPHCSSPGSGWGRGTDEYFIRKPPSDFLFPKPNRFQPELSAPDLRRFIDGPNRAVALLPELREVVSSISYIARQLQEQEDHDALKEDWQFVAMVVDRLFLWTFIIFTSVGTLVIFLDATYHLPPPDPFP
Sequence of muscle-type nicotinic acetylcholine receptors (Q07001 22-517): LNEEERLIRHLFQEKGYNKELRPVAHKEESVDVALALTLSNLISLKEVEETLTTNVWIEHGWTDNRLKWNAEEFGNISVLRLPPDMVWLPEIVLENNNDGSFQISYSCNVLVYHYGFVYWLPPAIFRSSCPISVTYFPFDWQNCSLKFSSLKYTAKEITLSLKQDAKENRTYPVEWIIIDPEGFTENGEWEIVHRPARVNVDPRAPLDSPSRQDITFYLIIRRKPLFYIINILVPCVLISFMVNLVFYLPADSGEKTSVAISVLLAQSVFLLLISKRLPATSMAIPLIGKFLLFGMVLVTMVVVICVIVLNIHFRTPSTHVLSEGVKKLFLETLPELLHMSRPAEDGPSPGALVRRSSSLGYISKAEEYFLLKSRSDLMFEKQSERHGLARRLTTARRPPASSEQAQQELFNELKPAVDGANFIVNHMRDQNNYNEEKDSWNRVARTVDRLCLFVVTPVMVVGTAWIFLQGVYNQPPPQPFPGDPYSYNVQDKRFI
Sequence of muscle-type nicotinic acetylcholine receptors (P07510 23-517): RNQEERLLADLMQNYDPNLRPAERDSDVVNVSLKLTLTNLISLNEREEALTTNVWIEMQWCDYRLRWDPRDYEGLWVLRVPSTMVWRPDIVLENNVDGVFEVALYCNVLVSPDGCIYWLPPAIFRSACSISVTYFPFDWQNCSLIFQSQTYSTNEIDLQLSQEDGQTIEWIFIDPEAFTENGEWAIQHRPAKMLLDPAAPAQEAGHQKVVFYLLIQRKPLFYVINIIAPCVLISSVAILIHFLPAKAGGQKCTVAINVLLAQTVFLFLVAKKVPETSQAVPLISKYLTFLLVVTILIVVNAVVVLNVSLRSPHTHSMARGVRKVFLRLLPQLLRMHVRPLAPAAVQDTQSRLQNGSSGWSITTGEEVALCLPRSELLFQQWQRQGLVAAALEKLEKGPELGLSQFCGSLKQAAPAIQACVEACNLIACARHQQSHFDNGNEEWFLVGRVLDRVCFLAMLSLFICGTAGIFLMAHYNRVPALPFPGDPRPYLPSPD
Procedure: (§1) The determination of the interaction of the compounds with muscle receptors was carried out in accordance with the techniques described in U.S. Pat. No. 5,597,919 to Dull et al. The maximal activation for individual compounds (Emax) was determined as a percentage of the maximal activation induced by (S)-(−)-nicotine. Reported Emax values represent the amount released relative to (S)-(−)-nicotine on a percentage basis. […] Such preferable compounds have the capability to activate human CNS receptors without activating muscle-type nicotinic acetylcholine receptors. Thus, there is provided a therapeutic window for utilization in the treatment of CNS disorders.

[3] = system: ganglia-type nicotinic acetylcholine receptors; assay: Determination of interaction with ganglion receptors; assay type: cell-based; settings: percentage of the maximal activation induced by (S)-(-)-nicotine
Procedure: as §1, with “ganglionic” for “muscle”, “ganglia-type” for “muscle-type”

c1cncc(CC2CC3CCC2N3)c1 (stereo not drawn) [Example 1, 2-((3-pyridyl)methyl)-7-azabicyclo[2.2.1]heptane]
Emax, neurotransmitter release [1]: 15% | Emax [2]: 52% | Emax, maximal activation at ganglia-type receptors [3]: 48%
